Assay results reported in PubChem BioAssay (NCI).
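Grown in 96-well plates, cells were treated for 48 hours with each compound at five concentrations. Insufficient inhibition: endpoint recorded as highest concentration tested. TGI: total growth inhibition.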

What was measured:
Experiment in all cases: NCI tumour cell line growth inhibition, 48 h
HCT-15 colon = tested on: HCT-15 colon
HT29 colon = tested on: HT29 colon
SK-OV-3 ovarian = tested on: SK-OV-3 ovarian
NCI/ADR-RES ovarian = tested on: NCI/ADR-RES ovarian
DMS 114 small cell lung = tested on: DMS 114 small cell lung
COLO 205 colon = tested on: COLO 205 colon
LOX IMVI melanoma = tested on: LOX IMVI melanoma
HOP-92 NSCLC = tested on: HOP-92 NSCLC
SN12C renal = tested on: SN12C renal
HOP-62 NSCLC = tested on: HOP-62 NSCLC
HL-60(TB) leukemia = tested on: HL-60(TB) leukemia
KM20L2 colon = tested on: KM20L2 colon
NCI-H460 lung = tested on: NCI-H460 lung
SW-620 colon = tested on: SW-620 colon
KM12 colon = tested on: KM12 colon
SK-MEL-2 melanoma = tested on: SK-MEL-2 melanoma
SK-MEL-5 melanoma = tested on: SK-MEL-5 melanoma
MOLT-4 leukemia = tested on: MOLT-4 leukemia
OVCAR-3 ovarian = tested on: OVCAR-3 ovarian
K-562 leukemia = tested on: K-562 leukemia
P388 leukemia = tested on: P388 leukemia
DMS 273 small cell lung = tested on: DMS 273 small cell lung
UO-31 renal = tested on: UO-31 renal
A549 NSCLC = tested on: A549 NSCLC
SF-295 CNS = tested on: SF-295 CNS
SF-268 CNS = tested on: SF-268 CNS
OVCAR-8 ovarian = tested on: OVCAR-8 ovarian
SNB-75 CNS = tested on: SNB-75 CNS
SNB-78 CNS = tested on: SNB-78 CNS
CAKI-1 renal = tested on: CAKI-1 renal
UACC-62 melanoma = tested on: UACC-62 melanoma
DLD-1 colon = tested on: DLD-1 colon
MALME-3M melanoma = tested on: MALME-3M melanoma
SN12K1 renal = tested on: SN12K1 renal
A498 renal = tested on: A498 renal
P388/ADR leukemia = tested on: P388/ADR leukemia
SK-MEL-28 melanoma = tested on: SK-MEL-28 melanoma
HOP-18 NSCLC = tested on: HOP-18 NSCLC
SF-539 CNS = tested on: SF-539 CNS
SNB-19 CNS = tested on: SNB-19 CNS
EKVX NSCLC = tested on: EKVX NSCLC
RPMI-8226 leukemia = tested on: RPMI-8226 leukemia
M19-MEL melanoma = tested on: M19-MEL melanoma
U251 CNS = tested on: U251 CNS
HCT-116 colon = tested on: HCT-116 colon
HCC-2998 colon = tested on: HCC-2998 colon
OVCAR-4 ovarian = tested on: OVCAR-4 ovarian
NCI-H23 lung = tested on: NCI-H23 lung
MCF7 breast = tested on: MCF7 breast
IGROV1 ovarian = tested on: IGROV1 ovarian
OVCAR-5 ovarian = tested on: OVCAR-5 ovarian
NCI-H226 lung = tested on: NCI-H226 lung
CCRF-CEM leukemia = tested on: CCRF-CEM leukemia
NCI-H522 lung = tested on: NCI-H522 lung
UACC-257 melanoma = tested on: UACC-257 melanoma
ACHN renal = tested on: ACHN renal
TK-10 renal = tested on: TK-10 renal
M14 melanoma = tested on: M14 melanoma
RXF-631 renal = tested on: RXF-631 renal
RXF 393 renal = tested on: RXF 393 renal
LXFL 529 NSCLC = tested on: LXFL 529 NSCLC
786-0 renal = tested on: 786-0 renal
XF 498 CNS = tested on: XF 498 CNS

O=C(NC(Cc1ccc(I)cc1)C(=O)O)c1cccc(Br)c1 (stereo unspecified)
TGI (HCT-15 colon): > 100 µM | TGI (HT29 colon): > 100 µM | TGI (SK-OV-3 ovarian): > 100 µM | TGI (NCI/ADR-RES ovarian): > 100 µM | TGI (DMS 114 small cell lung): > 100 µM | TGI (COLO 205 colon): > 100 µM | TGI (LOX IMVI melanoma): > 100 µM | TGI (HOP-92 NSCLC): > 100 µM | TGI (SN12C renal): > 100 µM | TGI (HOP-62 NSCLC): > 100 µM | TGI (HL-60(TB) leukemia): > 100 µM | TGI (KM20L2 colon): > 100 µM | TGI (NCI-H460 lung): > 100 µM | TGI (SW-620 colon): > 100 µM | TGI (KM12 colon): > 100 µM | TGI (SK-MEL-2 melanoma): > 100 µM | TGI (SK-MEL-5 melanoma): > 100 µM | TGI (MOLT-4 leukemia): > 100 µM | TGI (OVCAR-3 ovarian): > 100 µM | TGI (K-562 leukemia): > 100 µM | TGI (P388 leukemia): > 100 µM | TGI (DMS 273 small cell lung): > 100 µM | TGI (UO-31 renal): > 100 µM | TGI (A549 NSCLC): > 100 µM | TGI (SF-295 CNS): > 100 µM | TGI (SF-268 CNS): > 100 µM | TGI (OVCAR-8 ovarian): > 100 µM | TGI (SNB-75 CNS): > 100 µM | TGI (SNB-78 CNS): > 100 µM | TGI (CAKI-1 renal): > 100 µM | TGI (UACC-62 melanoma): > 100 µM | TGI (DLD-1 colon): > 100 µM | TGI (MALME-3M melanoma): > 100 µM | TGI (SN12K1 renal): > 100 µM | TGI (A498 renal): > 100 µM | TGI (P388/ADR leukemia): > 100 µM | TGI (SK-MEL-28 melanoma): > 100 µM | TGI (HOP-18 NSCLC): > 100 µM | TGI (SF-539 CNS): > 100 µM | TGI (SNB-19 CNS): > 100 µM | TGI (EKVX NSCLC): > 100 µM | TGI (RPMI-8226 leukemia): > 100 µM | TGI (M19-MEL melanoma): > 100 µM | TGI (U251 CNS): > 100 µM | TGI (HCT-116 colon): > 100 µM | TGI (HCC-2998 colon): > 93.1 µM | TGI (OVCAR-4 ovarian): > 100 µM | TGI (NCI-H23 lung): > 100 µM | TGI (MCF7 breast): > 100 µM | TGI (IGROV1 ovarian): > 100 µM | TGI (OVCAR-5 ovarian): > 100 µM | TGI (NCI-H226 lung): > 100 µM | TGI (CCRF-CEM leukemia): > 100 µM | TGI (NCI-H522 lung): > 100 µM | TGI (UACC-257 melanoma): > 100 µM

CN(C)CC1CC/C(=C\c2ccc(Cl)cc2)C1=O (stereo unspecified)
TGI (HCT-15 colon): 9.75 µM | TGI (HT29 colon): 23.7 µM | TGI (SK-OV-3 ovarian): 24.5 µM | TGI (NCI/ADR-RES ovarian): 16.1 µM | TGI (DMS 114 small cell lung): 20.7 µM | TGI (COLO 205 colon): 12 µM | TGI (LOX IMVI melanoma): 6.87 µM | TGI (HOP-92 NSCLC): 22.5 µM | TGI (SN12C renal): 20.5 µM | TGI (HOP-62 NSCLC): 41.5 µM | TGI (ACHN renal): 25.7 µM | TGI (HL-60(TB) leukemia): 2.88 µM | TGI (KM20L2 colon): 29.7 µM | TGI (NCI-H460 lung): 41.6 µM | TGI (SW-620 colon): 7.44 µM | TGI (KM12 colon): 13.7 µM | TGI (SK-MEL-2 melanoma): 26.6 µM | TGI (TK-10 renal): 21.7 µM | TGI (SK-MEL-5 melanoma): 24.2 µM | TGI (MOLT-4 leukemia): 2.75 µM | TGI (OVCAR-3 ovarian): 18.7 µM | TGI (K-562 leukemia): 4.46 µM | TGI (DMS 273 small cell lung): 12.9 µM | TGI (UO-31 renal): 30.5 µM | TGI (A549 NSCLC): 42.1 µM | TGI (SF-295 CNS): 35.5 µM | TGI (SF-268 CNS): 19.9 µM | TGI (OVCAR-8 ovarian): 12.8 µM | TGI (SNB-75 CNS): 28.7 µM | TGI (SNB-78 CNS): 40.4 µM | TGI (M14 melanoma): 22.5 µM | TGI (CAKI-1 renal): 12.9 µM | TGI (UACC-62 melanoma): 21.7 µM | TGI (RXF-631 renal): 38.1 µM | TGI (DLD-1 colon): 12.5 µM | TGI (MALME-3M melanoma): 15 µM | TGI (SN12K1 renal): 5.15 µM | TGI (A498 renal): 24 µM | TGI (SK-MEL-28 melanoma): 10.4 µM | TGI (HOP-18 NSCLC): 34 µM | TGI (SF-539 CNS): 27.3 µM | TGI (SNB-19 CNS): 30.1 µM | TGI (EKVX NSCLC): 30.1 µM | TGI (RPMI-8226 leukemia): 2.41 µM | TGI (M19-MEL melanoma): 10.7 µM | TGI (U251 CNS): 14 µM | TGI (RXF 393 renal): 8.66 µM | TGI (HCT-116 colon): 9.41 µM | TGI (HCC-2998 colon): 18.8 µM | TGI (LXFL 529 NSCLC): 4.13 µM | TGI (OVCAR-4 ovarian): 29.1 µM | TGI (NCI-H23 lung): 21.8 µM | TGI (MCF7 breast): 7.47 µM | TGI (IGROV1 ovarian): 31.1 µM | TGI (OVCAR-5 ovarian): 34.3 µM | TGI (786-0 renal): 6.79 µM | TGI (NCI-H226 lung): 35.8 µM | TGI (XF 498 CNS): 19.8 µM | TGI (CCRF-CEM leukemia): 2.89 µM | TGI (NCI-H522 lung): 6.94 µM | TGI (UACC-257 melanoma): 21.3 µM
